# Test results reported in article PMC8286840, “Identifying SARS-CoV-2 antiviral compounds by screening for small molecule inhibitors of Nsp3 papain-like protease” (Biochemical Journal, 2021).
# Structures can show the parent of a compound that is named as a salt. Where two headings read alike, the source gives them in different places.
# Legend:
# [1] = target: T1, SARS-CoV-2 PLpro (nsp3 1564–1878) (Severe acute respiratory syndrome coronavirus 2, UniProt P0DTD1); assay: biochemical; design: FRET-quenched peptide (Pro3) cleavage by PLpro, 10 min pre-incubation, slope over 20 min, normalised to no-compound control; conditions: high concentration screen, read-out: % of control remaining
# Experimental: The plates were organized with columns 3–22 containing the compounds; the remaining columns were used for reaction controls including substrate only and substrate with enzyme but no compound (Figure 3Aii). The PLpro enzyme was pre-incubated with the compounds for 10 min, and then the reaction was initiated by the addition of substrate. […] We incubated the inhibitors with PLpro before the enzymatic reaction so that the slow-binding inhibitors will not be missed out [21]. […] Fluorescence was read on a Spark multimode microplate reader (Tecan) with an excitation wavelength at 330 nm and emission wavelength at 420 nm. […] An amount of 5 µl of the enzyme was pre-incubated with compounds for 10 min before the addition of 15 µl substrate. Fluorescence was monitored at 2 min for 20 min with 3 min intervals giving a total of seven readings.
# [2] = target: T1, SARS-CoV-2 PLpro (nsp3 1564–1878); assay: biochemical; design: FRET-quenched peptide (Pro3) cleavage by PLpro, 10 min pre-incubation, slope over 20 min, normalised to no-compound control; conditions: low concentration screen, read-out: % of control remaining
compound,measurement,setting,value
CCc1nc(-c2cccc(C)c2)c(-c2ccnc(NC(=O)c3ccccc3)c2)s1 [TAK-715],remaining activity at 3.75 µM,[1]; Well no.=2751,104%
same,remaining activity at 1.25 µM,[2]; Well no.=2751,99.2%
COc1cccc(OC)c1OCCNCC1CSc2ccccc2O1 (centres unmarked) [Benoxathian hydrochloride],remaining activity at 3.75 µM,[1]; Well no.=323,93.6%
same,remaining activity at 1.25 µM,[2]; Well no.=323,99.7%
C=CCNC1=C2C[C@@H](C)C[C@H](OC)[C@H](O)[C@@H](C)/C=C(\C)[C@H](OC(N)=O)[C@@H](OC)/C=C\C=C(/C)C(=O)NC(=CC1=O)C2=O [Tanespimycin (17-AAG)],remaining activity at 3.75 µM,[1]; Well no.=8932,84.1%
same,remaining activity at 1.25 µM,[2]; Well no.=8932,88%
NCCCNCCCCNCCCN [Spermine tetrahydrochloride],remaining activity at 3.75 µM,[1]; Well no.=1312,101%
same,remaining activity at 1.25 µM,[2]; Well no.=1312,100%
"O=C(O)Cc1ccc(O)c(O)c1 [3,4-Dihydroxyphenylacetic acid]",remaining activity at 3.75 µM,[1]; Well no.=442,104%
same,remaining activity at 1.25 µM,[2]; Well no.=442,103%
CC(=O)N[C@@H](CCCN)C(=O)O [N-Acetylornithine],remaining activity at 3.75 µM,[1]; Well no.=7731,104%
same,remaining activity at 3.75 µM,[1]; Well no.=8748,98.7%
same,remaining activity at 1.25 µM,[2]; Well no.=7731,102%
same,remaining activity at 1.25 µM,[2]; Well no.=8748,99.4%
CC(=O)Nc1ccc(NC(=S)NC(=O)c2ccc(C(C)(C)C)cc2)cc1 [Tenovin-1],remaining activity at 3.75 µM,[1]; Well no.=4784,96.5%
same,remaining activity at 1.25 µM,[2]; Well no.=4784,95.1%
same,remaining activity at 1.25 µM,[2]; Well no.=7160,98.9%
CCc1cc(Cl)c(OC)c(C(=O)NC[C@@H]2CCN(CC)C2)c1O [S-(-)-Eticlopride hydrochloride],remaining activity at 3.75 µM,[1]; Well no.=417,101%
same,remaining activity at 1.25 µM,[2]; Well no.=417,102%
Cn1sc(=O)n(Cc2ccccc2)c1=O [GSK-3b Inhibitor I],remaining activity at 3.75 µM,[1]; Well no.=2460,108%
same,remaining activity at 1.25 µM,[2]; Well no.=2460,106%
COc1cc2nc(N3CCN(C(=O)C4CCCO4)CC3)nc(N)c2cc1OC (centres unmarked) [Terazosin hydrochloride],remaining activity at 3.75 µM,[1]; Well no.=1241,92.5%
same,remaining activity at 1.25 µM,[2]; Well no.=1241,98.7%
C[C@@H]1O[C@@]2(CS1)CN1CCC2CC1 [Cevimeline (hydrochloride hemihydrate)],remaining activity at 3.75 µM,[1]; Well no.=7571,90.9%
same,remaining activity at 1.25 µM,[2]; Well no.=7571,91.5%
CNCC(O)c1ccc(O)cc1 (centres unmarked) [Synephrine (hydrochloride)],remaining activity at 3.75 µM,[1]; Well no.=6699,101%
same,remaining activity at 1.25 µM,[2]; Well no.=6699,100%
CCC12C=CCN3CC[C@@]4(c5ccc(OC)cc5N(C)[C@H]4[C@@](O)(C(=O)OC)[C@@H]1OC(C)=O)[C@@H]32 (some centres unmarked) [Vindoline],remaining activity at 3.75 µM,[1]; Well no.=3761,96.6%
same,remaining activity at 1.25 µM,[2]; Well no.=3761,96.2%
Cc1nc2c(c(=O)[nH]1)CSCC2 [DR2313],remaining activity at 3.75 µM,[1]; Well no.=5778,96.7%
same,remaining activity at 1.25 µM,[2]; Well no.=5778,96.1%
CCC1=C[C@@H]2CN(C1)Cc1c([nH]c3ccccc13)[C@@](C(=O)OC)(c1cc3c(cc1OC)N(C)[C@H]1[C@@](O)(C(=O)OC)[C@H](OC(C)=O)[C@]4(CC)C=CCN5CC[C@]31[C@@H]54)C2 [Vinorelbine],remaining activity at 3.75 µM,[1]; Well no.=2029,108%
same,remaining activity at 3.75 µM,[1]; Well no.=3763,100%
same,remaining activity at 1.25 µM,[2]; Well no.=2029,104%
same,remaining activity at 1.25 µM,[2]; Well no.=3763,96.8%
CCOc1nc2cccc(C(=O)O)c2n1Cc1ccc(-c2ccccc2-c2noc(=O)[nH]2)cc1 [Azilsartan],remaining activity at 3.75 µM,[1]; Well no.=5416,95.7%
same,remaining activity at 3.75 µM,[1]; Well no.=6813,89.9%
same,remaining activity at 1.25 µM,[2]; Well no.=5416,97.2%
same,remaining activity at 1.25 µM,[2]; Well no.=6813,90.2%
S=C(N/N=C1\CCCc2cccnc21)N1CCN(c2ccccn2)CC1 [COTI-2],remaining activity at 3.75 µM,[1]; Well no.=6156,110%
same,remaining activity at 1.25 µM,[2]; Well no.=6156,109%
O=c1[nH]cc(F)c(=O)[nH]1 [5-Fluorouracil],remaining activity at 3.75 µM,[1]; Well no.=661,98.8%
same,remaining activity at 3.75 µM,[1]; Well no.=2116,98.2%
same,remaining activity at 1.25 µM,[2]; Well no.=661,97.2%
same,remaining activity at 1.25 µM,[2]; Well no.=2116,95.8%
C=CCN1CCc2c(cc(O)c(O)c2Cl)C(c2ccccc2)C1 (centres unmarked) [SKF-82958 (hydrobromide)],remaining activity at 3.75 µM,[1]; Well no.=7905,101%
same,remaining activity at 1.25 µM,[2]; Well no.=7905,105%
CN[C@@H]1C[C@H]2O[C@@](C)([C@@H]1OC)n1c3ccccc3c3c4c(c5c6ccccc6n2c5c31)C(=O)N[C@H]4O [UCN-01],remaining activity at 3.75 µM,[1]; Well no.=2587,97.5%
same,remaining activity at 1.25 µM,[2]; Well no.=2587,95.7%
CCCCCCCCCCCC(=O)O [Dodecanoic acid],remaining activity at 3.75 µM,[1]; Well no.=4256,94.8%
same,remaining activity at 1.25 µM,[2]; Well no.=4256,101%
C[n+]1c2ccccc2nc2ccccc21 [5-methylphenazin-5-ium methyl sulfate],remaining activity at 3.75 µM,[1]; Well no.=5668,89.8%
same,remaining activity at 1.25 µM,[2]; Well no.=5668,91.9%
Cc1noc(NS(=O)(=O)c2ccc(N)cc2)c1C [Sulfisoxazole],remaining activity at 3.75 µM,[1]; Well no.=4664,97.2%
same,remaining activity at 3.75 µM,[1]; Well no.=7548,101%
same,remaining activity at 3.75 µM,[1]; Well no.=8283,97.6%
same,remaining activity at 1.25 µM,[2]; Well no.=4664,95.8%
same,remaining activity at 1.25 µM,[2]; Well no.=7548,104%
same,remaining activity at 1.25 µM,[2]; Well no.=8283,97.8%
"CN(C)CCC(c1ccc(Br)cc1)c1ccccn1 (single isomer, unassigned; (+)) [(+)-Brompheniramine maleate]",remaining activity at 3.75 µM,[1]; Well no.=365,98.5%
same,remaining activity at 1.25 µM,[2]; Well no.=365,98.9%
C/C(=C\c1csc(C)n1)[C@@H]1C[C@@H]2O[C@@H]2CCC[C@H](C)[C@H](O)[C@@H](C)C(=O)C(C)(C)[C@@H](O)CC(=O)O1 [Epothilone A],remaining activity at 3.75 µM,[1]; Well no.=5157,93.4%
same,remaining activity at 1.25 µM,[2]; Well no.=5157,95.3%
CC(=O)c1ccc(NC2=C(Cl)C(=O)c3ccccc3C2=O)cc1 [NQ301],remaining activity at 3.75 µM,[1]; Well no.=5652,82.1%
same,remaining activity at 1.25 µM,[2]; Well no.=5652,93.7%
CCCCCCCCCCC/C=C\CCCCCC(=O)O [7(Z)-Nonadecenoic acid],remaining activity at 3.75 µM,[1]; Well no.=4364,100%
same,remaining activity at 1.25 µM,[2]; Well no.=4364,107%
O=c1cc(-c2ccc(O)cc2)oc2cc(O)c([C@@H]3O[C@H](CO)[C@@H](O)[C@H](O)[C@H]3O)c(O)c12 [Isovitexin],remaining activity at 3.75 µM,[1]; Well no.=3301,98.6%
same,remaining activity at 1.25 µM,[2]; Well no.=3301,99.2%
OCCOCCN1CCN(C2=Nc3ccccc3Sc3ccccc32)CC1 [Quetiapine (fumarate)],remaining activity at 3.75 µM,[1]; Well no.=6237,94.3%
same,remaining activity at 1.25 µM,[2]; Well no.=6237,98.2%
O=c1[nH]c2ccccc2n1CCCN1CCN(C(c2ccccc2)c2ccccc2)CC1 [Oxatomide],remaining activity at 3.75 µM,[1]; Well no.=994,101%
same,remaining activity at 3.75 µM,[1]; Well no.=1855,98.9%
same,remaining activity at 1.25 µM,[2]; Well no.=994,103%
same,remaining activity at 1.25 µM,[2]; Well no.=1855,95.4%
CN(C)CCSSCCNC(=O)C1CCN(C(=O)CSc2ccc(Cl)cc2)CC1 [6H05 (trifluoroacetate)],remaining activity at 3.75 µM,[1]; Well no.=6658,106%
same,remaining activity at 1.25 µM,[2]; Well no.=6658,103%
